Several values for one entry are separate records, joined by “and”; a condition that tells them apart may be missing. Equal entries are not always repeated.
System: MDA-MB-231 complex spheroid viability
Test: Anticancer human tumor MDA-MB-231/ATCC cell line growth inhibition;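 note: drug exposure lasted 7 days starting on day 3 of spheroid growth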
Settings: for viability, T/C: stronger effect = lower value
Method in brief: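 Complex spheroids of tumor cells with HUVEC and human MSCs, exposed to iadademstat combined with other agents. Each agent tested in half-log steps from near clinical Cmax (else 10 microM top), DMSO ≤0.25%.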

[1] = curve of first compound, second compound 0.1 µM
[2] = curve of first compound, second compound 0.316 µM
[3] = curve of first compound, second compound 1 µM
[4] = curve of first compound, second compound 3.16 µM
[5] = curve of first compound, second compound 10 µM

For `CC(C)CC(NC(=O)C(Cc1ccccc1)NC(=O)c1cnccn1)B(O)O` (stereo unspecified) + NC1CCC(NC2CC2c2ccccc2)CC1, the IC50 [1] was 1.2 nM, the IC50 [2] was 1.23 nM and the IC50 [3] was 1.05 nM. It also gave an IC50 [4] of 0.729 nM, an IC50 [5] of 0.478 nM and a viability, T/C (second compound 0.1 µM, first compound 0.000316 µM) of 106%. The viability, T/C (second compound 0.1 µM, first compound 0.001 µM) was 59.2%, the viability, T/C (second compound 0.1 µM, first compound 0.00316 µM) was 1.89% and the viability, T/C (second compound 0.1 µM, first compound 0.01 µM) was 0.42%. The viability, T/C (second compound 0.1 µM, first compound 0.0316 µM) was 0.53%, the viability, T/C (second compound 0.1 µM, first compound 0.1 µM) was 3.01% and the viability, T/C (second compound 0.316 µM, first compound 0.000316 µM) was 107%. The viability, T/C (second compound 0.316 µM, first compound 0.001 µM) was 60.7%, the viability, T/C (second compound 0.316 µM, first compound 0.00316 µM) was 1.73% and the viability, T/C (second compound 0.316 µM, first compound 0.01 µM) was 0.23%. It also gave a viability, T/C (second compound 0.316 µM, first compound 0.0316 µM) of 0.28%, a viability, T/C (second compound 0.316 µM, first compound 0.1 µM) of 0.27% and a viability, T/C (second compound 1 µM, first compound 0.000316 µM) of 104%. For the same compound, the viability, T/C (second compound 1 µM, first compound 0.001 µM) was 52%, the viability, T/C (second compound 1 µM, first compound 0.00316 µM) was 3.37% and the viability, T/C (second compound 1 µM, first compound 0.01 µM) was 0.18%. It also gave a viability, T/C (second compound 1 µM, first compound 0.0316 µM) of 0.38%, a viability, T/C (second compound 1 µM, first compound 0.1 µM) of 0.72% and a viability, T/C (second compound 3.16 µM, first compound 0.000316 µM) of 70%. It also gave a viability, T/C (second compound 3.16 µM, first compound 0.001 µM) of 42.4%, a viability, T/C (second compound 3.16 µM, first compound 0.00316 µM) of 1.87% and a viability, T/C (second compound 3.16 µM, first compound 0.01 µM) of 0.16%. For the same compound, the viability, T/C (second compound 3.16 µM, first compound 0.0316 µM) was 0.08%, the viability, T/C (second compound 3.16 µM, first compound 0.1 µM) was 0.54% and the viability, T/C (second compound 10 µM, first compound 0.000316 µM) was 58.9%. For the same compound, the viability, T/C (second compound 10 µM, first compound 0.001 µM) was 34.1%, the viability, T/C (second compound 10 µM, first compound 0.00316 µM) was 0.9% and the viability, T/C (second compound 10 µM, first compound 0.01 µM) was 0.23%. It also gave a viability, T/C (second compound 10 µM, first compound 0.0316 µM) of 1.54% and a viability, T/C (second compound 10 µM, first compound 0.1 µM) of 1.08%.

With `Nc1ccn(C2OC(CO)C(O)C2(F)F)c(=O)n1` (stereo unspecified) + NC1CCC(NC2CC2c2ccccc2)CC1 the IC50 [1] was < 0.949 nM, the IC50 [2] was < 0.949 nM and the IC50 [3] was < 0.949 nM. The IC50 [4] was < 0.949 nM, the IC50 [5] was < 0.949 nM and the viability, T/C (second compound 0.1 µM, first compound 0.000949 µM) was 23.4%. It also gave a viability, T/C (second compound 0.1 µM, first compound 0.003 µM) of 18.9%, a viability, T/C (second compound 0.1 µM, first compound 0.00949 µM) of 17.4% and a viability, T/C (second compound 0.1 µM, first compound 0.03 µM) of 15.9%. It also gave a viability, T/C (second compound 0.1 µM, first compound 0.0949 µM) of 8.32%, a viability, T/C (second compound 0.1 µM, first compound 0.3 µM) of 6.14% and a viability, T/C (second compound 0.316 µM, first compound 0.000949 µM) of 24.3%. For the same compound, the viability, T/C (second compound 0.316 µM, first compound 0.003 µM) was 19.6%, the viability, T/C (second compound 0.316 µM, first compound 0.00949 µM) was 19% and the viability, T/C (second compound 0.316 µM, first compound 0.03 µM) was 16%. For the same compound, the viability, T/C (second compound 0.316 µM, first compound 0.0949 µM) was 8.93%, the viability, T/C (second compound 0.316 µM, first compound 0.3 µM) was 6.74% and the viability, T/C (second compound 1 µM, first compound 0.000949 µM) was 22.2%. For the same compound, the viability, T/C (second compound 1 µM, first compound 0.003 µM) was 17.9%, the viability, T/C (second compound 1 µM, first compound 0.00949 µM) was 18.2% and the viability, T/C (second compound 1 µM, first compound 0.03 µM) was 13.6%. It also gave a viability, T/C (second compound 1 µM, first compound 0.0949 µM) of 8.49%, a viability, T/C (second compound 1 µM, first compound 0.3 µM) of 7.33% and a viability, T/C (second compound 3.16 µM, first compound 0.000949 µM) of 23.7%. The viability, T/C (second compound 3.16 µM, first compound 0.003 µM) was 18.9%, the viability, T/C (second compound 3.16 µM, first compound 0.00949 µM) was 17.2% and the viability, T/C (second compound 3.16 µM, first compound 0.03 µM) was 12.8%. For the same compound, the viability, T/C (second compound 3.16 µM, first compound 0.0949 µM) was 9.01%, the viability, T/C (second compound 3.16 µM, first compound 0.3 µM) was 6.68% and the viability, T/C (second compound 10 µM, first compound 0.000949 µM) was 19.2%. It also gave a viability, T/C (second compound 10 µM, first compound 0.003 µM) of 19.2%, a viability, T/C (second compound 10 µM, first compound 0.00949 µM) of 14.4% and a viability, T/C (second compound 10 µM, first compound 0.03 µM) of 10.3%. It also gave a viability, T/C (second compound 10 µM, first compound 0.0949 µM) of 6.87% and a viability, T/C (second compound 10 µM, first compound 0.3 µM) of 5.84%.

`O=C(C=Cc1cccc(S(=O)(=O)Nc2ccccc2)c1)NO` was tested, and the viability, T/C (compound 0.00949 µM) was 82.2% and 70.1%, the viability, T/C (compound 0.03 µM) was 62.3% and 50.3% and the viability, T/C (compound 0.0949 µM) was 52.9% and 31.3%. For the same compound, the viability, T/C (compound 0.3 µM) was 24.5% and 17.3%, the viability, T/C (compound 0.949 µM) was 13.2% and 0.72% and the IC50 (curve of compound) was 81.6 nM and 30.6 nM.

From PubChem BioAssay AID1918953 (Molecular Pharmacology Branch, DTP, NCI, 2023)
